According to patent US10597388B2, “Pyridazinone herbicides” (FMC CORPORATION, priority 2014, dated 2020):

Tests used:
Assay type in all cases: in vivo
[1] = system: ducksalad (Heteranthera limosa); experiment: Test B flooded paddy test; conditions: 250 g ai/ha, Flood; visual rating on scale of 0 to 100 where 0 is no effect and 100 is complete control; 13 to 15 d after treatment
How it was run: (§1)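 Plants at the 2-leaf stage were flooded to 3 cm above soil, and test compounds were applied directly into the paddy water, which was held at that depth throughout. After 13 to 15 d in a greenhouse, injury was rated visually against untreated controls on a 0–100 scale (0 no effect, 100 complete control).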

[2] = system: barnyardgrass (Echinochloa crus-galli); experiment: Test B flooded paddy test; conditions: 250 g ai/ha, Flood; visual rating on scale of 0 to 100 where 0 is no effect and 100 is complete control; 13 to 15 d after treatment
How it was run: as §1

[3] = system: rice (Oryza sativa); experiment: Test B flooded paddy test; conditions: 250 g ai/ha, Flood; visual rating on scale of 0 to 100 where 0 is no effect and 100 is complete control; 13 to 15 d after treatment
How it was run: as §1

[4] = system: sedge, umbrella (small-flower umbrella sedge, Cyperus difformis); experiment: Test B flooded paddy test; conditions: 250 g ai/ha, Flood; visual rating on scale of 0 to 100 where 0 is no effect and 100 is complete control; 13 to 15 d after treatment
How it was run: as §1

[5] = system: kochia (Kochia scoparia); experiment: Test C greenhouse herbicide test, postemergence
How it was run: (§2)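 Plants grown in potting mix of peat moss, vermiculite, wetting agent and starter nutrients were sprayed postemergence at 2 to 18 cm height (1- to 4-leaf stage). After 13 to 15 d in the greenhouse, injury was visually rated against untreated controls on a 0–100 scale (0 no effect, 100 complete control).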

[6] = system: chickweed (common chickweed, Stellaria media); experiment: Test C greenhouse herbicide test, postemergence
How it was run: as §2

[7] = system: oat, wild (wild oat, Avena fatua); experiment: Test C greenhouse herbicide test, postemergence
How it was run: as §2

[8] = system: kochia (Kochia scoparia); experiment: Test A greenhouse herbicide test, pre- and postemergence
How it was run: (§3)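 Seeds sown in loam–sand blend got a preemergence directed soil spray of compound in non-phytotoxic solvent with surfactant. Postemergence treatment was given at 2–10 cm, one- to two-leaf stage. After ~10 d in greenhouse, injury was rated visually vs untreated controls, 0 (no effect) to 100 (complete control).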

[9] = system: barnyardgrass (Echinochloa crus-galli); experiment: as above
How it was run: as §3

[10] = system: ragweed (common ragweed, Ambrosia elatior); experiment: as above
How it was run: as §3

[11] = system: pigweed (Amaranthus retroflexus); experiment: as above
How it was run: as §3

[12] = Postemergence, 31 g ai/ha, scale 0 to 100 (0 no effect, 100 complete control)
[13] = Postemergence, 62 g ai/ha, 0 to 100 scale (0 no effect, 100 complete control)
[14] = Postemergence, 125 g ai/ha, scale 0 to 100, 0 is no effect, 100 is complete control
[15] = Postemergence, 250 g ai/ha, scale 0 to 100, 0 no effect, 100 complete control, 13 to 15 d
[16] = Postemergence, 125 g ai/ha, 0 to 100 scale where 0 is no effect and 100 is complete control
[17] = Postemergence, 500 g ai/ha, visual rating after approx. 10 d, 0 to 100 scale (0 no effect, 100 complete control)
[18] = Preemergence, 125 g ai/ha, 0 to 100 scale where 0 is no effect and 100 is complete control
[19] = Preemergence, 500 g ai/ha, 0 to 100 scale where 0 is no effect and 100 is complete control
[20] = postemergence, 62 g ai/ha, scale 0 to 100, 0 no effect, 100 complete control
[21] = Postemergence, 31 g ai/ha, 0 to 100 scale (0 no effect, 100 complete control)
[22] = Postemergence, 125 g ai/ha, visual rating after approx. 10 d, 0 to 100 scale (0 no effect, 100 complete control)
[23] = Postemergence, 500 g ai/ha, 0 to 100 scale, 0 is no effect, 100 is complete control
[24] = Preemergence, 500 g ai/ha, 0 to 100 scale, 0 no effect, 100 complete control

Row | SMILES | Plant response rating, Ducksalad [1] | Plant response rating, Barnyardgrass [2] | Plant response rating, Rice [3] | Plant response rating, Sedge, Umbrella [4] | Plant response rating, Kochia [5, 12] | Plant response rating, Kochia [5, 14] | Plant response rating, Kochia [5, 15] | Plant response rating, Chickweed [6, 12] | Plant response rating, Chickweed [6, 14] | Plant response rating, Chickweed [6, 15] | Plant response rating, Oat, Wild [7, 12] | Plant response rating, Oat, Wild [7, 14] | Plant response rating, Oat, Wild [7, 15] | Plant response rating, Kochia [8, 16] | Plant response rating, Kochia [8, 17] | Kochia plant response rating [8, 18] | Plant response rating, Kochia [8, 19] | Barnyardgrass plant response rating [9, 18] | Ragweed plant response rating [10, 18] | Pigweed plant response rating [11, 18] | other results
1 | Cc1nn(C)c(=O)c(-c2cccc3ccc(Br)cc23)c1O [Compound 126] | 30 | 0 | 0 | 0 | 90 | 95 | 95 | 90 | 95 | 100 | 60 | 90 | 85 | 90 | 90 | 50 | 90 | 40 | 70 | 100 | Kochia plant response rating [5, 13]: 90; Chickweed plant response rating [6, 13]: 90; Oat, Wild plant response rating [7, 13]: 80; Plant response rating, Barnyardgrass [9, 16]: 30; Plant response rating, Barnyardgrass [9, 17]: 60; Plant response rating, Barnyardgrass [9, 19]: 80; Plant response rating, Ragweed [10, 16]: 90; Plant response rating, Ragweed [10, 17]: 90; Plant response rating, Ragweed [10, 19]: 80; Plant response rating, Pigweed [11, 16]: 90; Plant response rating, Pigweed [11, 17]: 100; Plant response rating, Pigweed [11, 19]: 100
2 | CCC(=O)Oc1c(C)nn(C)c(=O)c1-c1ccc(F)c2ccccc12 [Compound 113] | 0 | 0 | 0 | 0 | 95 | 95 | 100 | 90 | 98 | 100 | 90 | 90 | 90 | 100 | 100 | 90 | 100 | 70 | 70 | 100 | Chickweed plant response rating [6, 20]: 90; Plant response rating, Barnyardgrass [9, 16]: 40; Plant response rating, Barnyardgrass [9, 17]: 90; Plant response rating, Barnyardgrass [9, 19]: 100; Plant response rating, Ragweed [10, 16]: 90; Plant response rating, Ragweed [10, 17]: 100; Plant response rating, Ragweed [10, 19]: 90; Plant response rating, Pigweed [11, 16]: 90; Plant response rating, Pigweed [11, 17]: 100; Plant response rating, Pigweed [11, 19]: 100
3 | Cc1ccc2sc(C)c(-c3c(OC(=O)C(C)(C)C)c(C)nn(C)c3=O)c2c1 [Compound 26] | 0 | 0 | 0 | 0 |  | 90 | 100 |  | 100 | 100 |  | 95 | 90 |  |  | 30 |  | 0 | 20 | 80 | Kochia plant response rating [5, 21]: 80; Kochia plant response rating [5, 20]: 70; Chickweed plant response rating [6, 21]: 95; Chickweed plant response rating [6, 20]: 95; Oat, Wild plant response rating [7, 21]: 60; Oat, Wild plant response rating [7, 20]: 80; Plant response rating, Kochia [8, 22]: 80; Kochia plant response rating [8, 23]: 90; Plant response rating, Kochia [8, 24]: 30; Plant response rating, Barnyardgrass [9, 22]: 10; Barnyardgrass plant response rating [9, 23]: 30; Plant response rating, Barnyardgrass [9, 24]: 10; Plant response rating, Ragweed [10, 22]: 60; Ragweed plant response rating [10, 23]: 90; Plant response rating, Ragweed [10, 24]: 40; Plant response rating, Pigweed [11, 22]: 80; Pigweed plant response rating [11, 23]: 90; Plant response rating, Pigweed [11, 24]: 100
